Data on five compounds can be found in the NIST ThermoML archive (doi:10.1021/acs.jced.6b00695).

Broadly, the surface tension liquid-gas is the force per length acting along the surface. Usually viscosity stands for the resistance of a fluid to flow. One may read the speed of sound as the propagation velocity of pressure waves in the medium. Broadly, the mass density is mass per unit of volume.

This data set is described as follows: mn = molality of the nth substance listed, in mol/kg. The note with it: for surface tension liquid-gas: Capillary rise; for viscosity / speed of sound / mass density: 100 kPa, Liquid; for viscosity: Capillary tube (Ostwald / Ubbelohde) method; for speed of sound: Sing-around technique in a fixed-path interferometer; for mass density: Vibrating tube method.

Numbers after ± are expanded uncertainties.

As to `OC[C@H]1O[C@@](CO)(O[C@H]2O[C@H](CO)[C@@H](O)[C@H](O)[C@H]2O)[C@@H](O)[C@@H]1O` [D-sucrose] + O, where the note is “298.15 K, m1 = 1.27”, the surface tension liquid-gas stood at 42.79 ± 0.7 mN/m, the viscosity is given as 2.727 ± 0.018 mPa·s, the speed of sound came to 1607.8 ± 1.1 m/s and the mass density amounted to 1127.29 ± 0.25 kg/m3. For the setting “303.15 K, m1 = 1.27”, the surface tension liquid-gas amounted to 42.13 ± 0.7 mN/m, the viscosity is 2.386 ± 0.016 mPa·s, the speed of sound is given as 1615.4 ± 1.1 m/s and the mass density is 1125.29 ± 0.25 kg/m3. Besides, under “308.15 K, m1 = 1.27”, the surface tension liquid-gas came to 40.87 ± 0.7 mN/m, the viscosity was 2.085 ± 0.014 mPa·s, the speed of sound was 1621.8 ± 1.1 m/s and the mass density is given as 1123.11 ± 0.25 kg/m3.
Take `O=C(O)CC(O)(CC(=O)O)C(=O)O` [citric acid] + O: for the setting “298.15 K, m1 = 0.005”, the surface tension liquid-gas turned out to be 71.6 ± 0.69 mN/m, the viscosity worked out at 0.9011 ± 0.0069 mPa·s, the speed of sound came to 1494.6 ± 0.86 m/s and the mass density stood at 997.455 ± 0.05 kg/m3. In addition, under “303.15 K, m1 = 0.005”, the surface tension liquid-gas came out at 70.84 ± 0.69 mN/m, the viscosity came to 0.8009 ± 0.0066 mPa·s, the speed of sound stood at 1504.7 ± 0.86 m/s and the mass density is 996.059 ± 0.045 kg/m3. Also, where the note is “308.15 K, m1 = 0.005”, the surface tension liquid-gas was 70.06 ± 0.69 mN/m, the viscosity came to 0.7225 ± 0.0063 mPa·s, the speed of sound is 1516.2 ± 0.87 m/s and the mass density was determined as 994.427 ± 0.051 kg/m3.
Consider `[Cl][Dy]([Cl])[Cl]` [dysprosium(III) chloride] + O, for which the mass density (298.15 K, m1 = 0.005) was determined as 998.006 ± 0.05 kg/m3.
Still for that read-out and setting: next, `[Cl][Er]([Cl])[Cl]` [erbium trichloride] + O: 998.051 ± 0.05 kg/m3; `[Cl][Yb]([Cl])[Cl]` [ytterbium trichloride] + O: 998.121 ± 0.05 kg/m3.
